Results taken from PubChem BioAssay (NCI).
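A five-concentration, 48-hour dose response in 96-well plates underlies each endpoint, interpolated linearly between surrounding concentrations. Here, GI50 denotes the concentration required for 50% inhibition of growth. At the TGI there is no net growth.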

Tests used:
Assay in all cases: NCI-60 cell line screen, 48 h
A498 renal = system: A498 renal
NCI-H23 lung = system: NCI-H23 lung
TK-10 renal = system: TK-10 renal
NCI/ADR-RES ovarian = system: NCI/ADR-RES ovarian
DU-145 prostate = system: DU-145 prostate
SF-268 CNS = system: SF-268 CNS
CCRF-CEM leukemia = system: CCRF-CEM leukemia
NCI-H522 lung = system: NCI-H522 lung
HOP-92 NSCLC = system: HOP-92 NSCLC
NCI-H460 lung = system: NCI-H460 lung

Row | SMILES | GI50 (A498 renal) | TGI (A498 renal) | GI50 (NCI-H23 lung) | TGI (NCI-H23 lung) | GI50 (TK-10 renal) | TGI (TK-10 renal) | GI50 (NCI/ADR-RES ovarian) | TGI (NCI/ADR-RES ovarian) | GI50 (DU-145 prostate) | TGI (DU-145 prostate) | GI50 (SF-268 CNS) | TGI (SF-268 CNS) | GI50 (CCRF-CEM leukemia) | TGI (CCRF-CEM leukemia) | GI50 (NCI-H522 lung) | TGI (NCI-H522 lung) | GI50 (HOP-92 NSCLC) | TGI (HOP-92 NSCLC) | GI50 (NCI-H460 lung) | TGI (NCI-H460 lung)
1 | CCC(Sc1nnc2c3ccccc3n(CC)c2n1)C(=O)Nc1ccccc1OC (stereo not given) | 2.2 µM | 6.77 µM | 3.41 µM | > 100 µM | > 100 µM | > 100 µM | > 100 µM | > 100 µM | > 100 µM | > 100 µM | > 100 µM | > 100 µM | > 94.9 µM | > 100 µM | > 100 µM | > 100 µM | 65.5 µM | > 100 µM | > 100 µM | > 100 µM
2 | COc1cccc(/C=N\Nc2ccc([N+](=O)[O-])cn2)c1O | 2.42 µM | 15.4 µM | 2.92 µM | 14.9 µM | 7.31 µM | > 100 µM | 2.43 µM | 28 µM | 4.34 µM | 62.6 µM | 2.58 µM | 23.8 µM | 3.42 µM | 38.2 µM | 3.34 µM | 18.4 µM | 2.8 µM | 9.44 µM | 2.05 µM | 11 µM
3 | CC(=O)O[C@@H]1CO[C@H]2O[C@H]3[C@@H](C(C=O)=C[C@H](O)[C@@H]4C5=C(C(C)C)CC[C@]5(C)CC[C@@]34C)[C@@]2(O)C1=O | – | 1.96 µM | – | 0.893 µM | – | 0.596 µM | – | 1.06 µM | – | 2.02 µM | – | 0.667 µM | – | 0.418 µM | – | 0.24 µM | – | 0.554 µM | – | 0.699 µM
4 | C(=C1c2ccccc2-c2ccccc21)c1ccccn1 | 3.51 µM | 23.7 µM | 10.3 µM | 96.7 µM | 19 µM | 57.3 µM | 3.86 µM | 31 µM | 16.1 µM | 44.9 µM | 12.4 µM | 57.7 µM | 7.8 µM | 46 µM | 11.1 µM | 51.1 µM | 7.43 µM | 74.5 µM | 5.87 µM | 23 µM
5 | O=Cc1ccc(-c2ccc(-c3ccc(C=O)s3)o2)s1 | – | 0.732 µM | – | > 100 µM | – | 7.33 µM | – | > 100 µM | – | > 100 µM | – | > 100 µM | – | > 100 µM | – | 29.5 µM | – | > 100 µM | – | > 100 µM
6 | CO[C@@H]1[C@@H](OC2OC(C)C(OC3CC(C)(O)C(OC(=O)CC(C)C)C(C)O3)C(N(C)C)C2O)[C@@H](CC=O)C[C@@H](C)C(=O)/C=C/C2O[C@H]2C[C@@H](C)OC(=O)C[C@H]1OC(C)=O (stereo not given in full) | – | 52 µM | – | 45.8 µM | – | 50.9 µM | – | 98.9 µM | – | 28 µM | – | > 100 µM | – | 34.3 µM | – | 36 µM | – | 27 µM | – | 41.8 µM
